Data: patent US20240390350A1, “PHENYL CORE COMPOUNDS AS MGLU5 NEGATIVE ALLOSTERIC MODULATORS AND METHODS OF MAKING AND USING THE SAME” (Vanderbilt University, priority 2021, published 2024)

Molecular target: T1, human mGlu5 (Homo sapiens, UniProt P41594)
T1 construct: expressed in transfected cells; host or cells: HEK 293A
Test: mGlu5 negative allosteric modulator Ca2+ flux assay in HEK 293A cells (Table 1)
Format: cell-based
Conditions: HEK 293A cells stably expressing mGlu5; Ca2+ flux (Fluo-4); decrease of glutamate EC80 response; read-out: hmGlu5 NAM IC50

T1 sequence (P41594 21-1212): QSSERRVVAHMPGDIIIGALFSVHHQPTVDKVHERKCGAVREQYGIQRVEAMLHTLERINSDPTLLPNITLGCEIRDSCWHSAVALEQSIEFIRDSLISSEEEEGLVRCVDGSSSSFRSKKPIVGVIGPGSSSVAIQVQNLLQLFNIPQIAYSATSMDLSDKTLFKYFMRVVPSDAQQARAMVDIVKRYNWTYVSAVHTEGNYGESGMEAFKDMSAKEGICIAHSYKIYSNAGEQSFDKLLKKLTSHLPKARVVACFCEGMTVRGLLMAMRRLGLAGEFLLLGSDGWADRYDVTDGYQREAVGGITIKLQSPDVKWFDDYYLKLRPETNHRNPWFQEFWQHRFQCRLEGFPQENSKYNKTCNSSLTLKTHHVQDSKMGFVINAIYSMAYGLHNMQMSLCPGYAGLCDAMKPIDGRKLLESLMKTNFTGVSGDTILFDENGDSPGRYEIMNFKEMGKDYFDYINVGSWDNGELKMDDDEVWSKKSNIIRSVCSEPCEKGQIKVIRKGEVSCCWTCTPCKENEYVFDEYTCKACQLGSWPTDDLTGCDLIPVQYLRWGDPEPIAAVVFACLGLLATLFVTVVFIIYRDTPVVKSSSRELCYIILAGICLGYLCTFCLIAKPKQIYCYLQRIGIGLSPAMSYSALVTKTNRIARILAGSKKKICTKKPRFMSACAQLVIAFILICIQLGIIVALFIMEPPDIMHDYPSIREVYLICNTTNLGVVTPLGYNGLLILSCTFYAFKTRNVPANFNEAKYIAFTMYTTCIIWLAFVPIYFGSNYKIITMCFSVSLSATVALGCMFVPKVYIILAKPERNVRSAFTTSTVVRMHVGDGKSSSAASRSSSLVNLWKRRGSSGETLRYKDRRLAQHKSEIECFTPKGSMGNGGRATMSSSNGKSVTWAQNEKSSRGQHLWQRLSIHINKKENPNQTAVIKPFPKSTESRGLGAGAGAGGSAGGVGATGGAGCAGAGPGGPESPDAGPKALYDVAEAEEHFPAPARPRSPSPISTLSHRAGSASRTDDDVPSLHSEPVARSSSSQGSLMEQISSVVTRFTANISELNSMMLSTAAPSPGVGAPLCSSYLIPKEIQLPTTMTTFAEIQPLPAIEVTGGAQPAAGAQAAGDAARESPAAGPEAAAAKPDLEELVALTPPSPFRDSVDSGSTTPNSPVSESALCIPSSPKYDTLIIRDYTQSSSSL

IC50 [nM]	SMILES
192	Cc1ccncc1-c1cc(C(=O)Nc2cccc(Cl)n2)c(F)cc1F [Compound 48, N-(6-chloropyridin-2-yl)-2,4-difluoro-5-(4-methylpyridin-3-yl)benzamide]
412	Cc1ccncc1-c1cc(C(=O)Nc2ccccn2)cc(F)c1F [Compound 49, 3,4-difluoro-5-(4-methylpyridin-3-yl)-N-(pyridin-2-yl)benzamide]
79	Cc1ccncc1-c1cc(C(=O)Nc2cccc(Cl)n2)cc(F)c1F [Compound 50, N-(6-chloropyridin-2-yl)-3,4-difluoro-5-(4-methylpyridin-3-yl)benzamide]
437	Cc1csc(NC(=O)c2cc(F)c(F)c(-c3cnccc3C)c2)n1 [Compound 51, 3,4-difluoro-5-(4-methylpyridin-3-yl)-N-(4-methylthiazol-2-yl)benzamide]
